In one experiment the test system is 70Z/3 cells. The conditions noted are these: background; cited from earlier work.
In experiment [1] the test system is RAW 264.7 murine macrophage cells. The experiment can be described thus: Cachectin/TNF production by RAW 264.7 cells, immunoblot. Conditions: other lipid A analogs and precursors. The experiment is classed as cell-based. As for the experimental part: For the […] to activate the RAW 264.7 murine macrophage cell line, we chose the toxic deep rough chemotype LPS (ReLPS) from Escherichia coli D31m4, which was recently purified and characterized^15. […] This is a clear example of a lipid A derivative showing strong antagonism against a toxic agonist in the induction of cachectin.
The immunoblot method was used to quantitate the cachectin/TNF production by RAW 264.7 murine macrophage cells. RAW 264.7 cells^4,16 were seeded in 24-well plates (Nunc) at a density of 3×10^5 cells/well in Dulbecco's modified Eagle's medium supplemented with 5 percent fetal calf serum. After 12 hours, cell monolayers were washed twice with 1 ml of serum-free medium and then left covered with […] of the same. An aqueous suspension of DPLA and/or ReLPS was then added to a final concentration indicated. Cells were incubated for 12 hours, after which the medium was removed for measurement of TNF by immunoblotting. One hundred μl of medium was mixed with 100 μl of SDS-containing sample buffer, heated to 100° C. for 5 minutes, and subjected to electrophoresis in a 10-15% polyacrylamide gradient gel. Proteins were then transferred to nitrocellulose electrophoretically, and TNF was visualized through the use of a rabbit anti-mouse TNF polyclonal serum^3,5 applied at a 1:100 dilution, followed by alkaline phosphatase-conjugated goat anti-rabbit IgG (Bio-Rad).
Bands were visualized using nitroblue tetrazolium. Approximately 0.1 ng of cachectin/TNF may be detected as a band. The antiserum also recognized the processing intermediates (prohormones) on Western blot.
(In general: Immunoblotting shows a protein as a band on a membrane.)

A further experiment concerns neutrophil. The conditions noted are these: literature; cited from earlier work.
The conditions of experiment [2]: large excess of lipid X; cited from earlier work.

Turning to `CCCCCCCCCCC[C@@H](O)CC(=O)N[C@H]1[C@@H](OP(=O)(O)O)O[C@H](CO)[C@@H](O)[C@@H]1OC(=O)C[C@H](O)CCCCCCCCCCC` [lipid X], the “activity in stimulating 70Z/3 cells” value in the experiment with 70Z/3 cells is “some activity in stimulating 70Z/3 cells”. Further, the “induction of cachectin in RAW cells (immunoblot)” value (from here on “induction of cachectin”) in experiment [1] is reported as “caused the induction of cachectin”. Moreover, the “inhibition of LPS-induced neutrophil priming” value in the experiment on neutrophil is recorded as “inhibit the LPS-induced neutrophil priming”. Further, the “blocking of toxic effects of lipid A” value in experiment [2] is recorded as “partially blocking its toxic effects”.

Consider “monophosphoryl lipid A [reference compound]”, for which, in experiment [1], the “induction of cachectin” value is “caused the induction of cachectin”.

For `CCCCCCCCCCC[C@@H](O)CC(=O)N[C@H]1[C@@H](OP(=O)(O)O)O[C@H](CO)[C@@H](O)[C@@H]1NC(=O)C[C@H](O)CCCCCCCCCCC` [3-aza-lipid X], the “inhibition of LPS-induced neutrophil priming” value in the experiment with neutrophil is on record as “inhibit the LPS-induced neutrophil priming”.

As to `CCCCCCCCCCC[C@@H](O)CC(=O)N[C@H]1[C@H](OC[C@H]2O[C@H](OP(=O)(O)O)[C@H](NC(=O)C[C@H](O)CCCCCCCCCCC)[C@@H](OC(=O)C[C@H](O)CCCCCCCCCCC)[C@@H]2O)O[C@H](CO)[C@@H](OP(=O)(O)O)[C@@H]1OC(=O)C[C@H](O)CCCCCCCCCCC` [precursor IVA, reference compound], in experiment [1], the “induction of cachectin” value was “caused the induction of cachectin”.

These data come from patent publication US5158939A, “Method of stimulating the immune systems of animals and compositions useful therefor” (priority 1990, dated 1992).
